Measurements published in PMC3076582 (European Journal of Clinical Pharmacology, 2010).
Read-outs that look alike come from different tables or passages of the source.

What was measured:
[1] = assay type: in vivo, human; details: for Dose-corrected serum concentration, 25th percentile / Dose-corrected serum concentration, 75th percentile / Dose-corrected serum concentration, mean / Dose-corrected serum concentration, median / Dose-corrected serum concentration, minimum to maximum / Uncorrected serum concentration, 25th percentile / Uncorrected serum concentration, 75th percentile / Uncorrected serum concentration, mean / Uncorrected serum concentration, minimum to maximum / Uncorrected serum concentration, median / Ratio metabolite/oxycodone serum concentration, 25th percentile / Ratio metabolite/oxycodone serum concentration, 75th percentile / Ratio metabolite/oxycodone serum concentration, mean / Ratio metabolite/oxycodone serum concentration, median / Ratio metabolite/oxycodone serum concentration, minimum to maximum: hospitalised patients; for Uncorrected serum concentration, median: oral oxycodone, trough sample; for Serum concentration, range / Serum concentration, median: partly different from Table 3; for Ratio metabolite/oxycodone serum concentration, 25th percentile / Ratio metabolite/oxycodone serum concentration, 75th percentile / Ratio metabolite/oxycodone serum concentration, mean / Ratio metabolite/oxycodone serum concentration, median / Ratio metabolite/oxycodone serum concentration, minimum to maximum: uncorrected serum concentrations
[2] = for Unstandardised coefficient B, ratio noroxycodone/oxycodone / Unstandardised coefficient B, oxycodone serum concentration / Unstandardised coefficient B, ratio oxymorphone/oxycodone: log 10 form
CYP2D6 = details: healthy volunteers; cited from earlier work
CYP3A4 = details: cited from earlier work
[3] = Mann-Whitney U test; 35 users
[4] = cited from earlier work
[5] = cited from earlier work; remark: listed apart in the source
[6] = cited from earlier work; remark: listed apart in the source
[7] = factor: CYP3A4 inducer (yes = 1)
[8] = factor: CYP3A4 inhibitor (yes = 1)
[9] = factor: sex (men = 1, women = 0)
[10] = factor: time from last oxycodone dose to blood sample

SMILES	95% CI for the mean ratio metabolite/oxycodone [1] [nM]	95% CI for the uncorrected mean serum concentration [1] [nM]	Dose-corrected serum concentration, 25th percentile [1]	Dose-corrected serum concentration, 75th percentile [1]	Dose-corrected serum concentration, mean [1]	Dose-corrected serum concentration, median [1]	Dose-corrected serum concentration, minimum to maximum [1]	Uncorrected serum concentration, 25th percentile [1] [nM]	Uncorrected serum concentration, 75th percentile [1] [nM]	Uncorrected serum concentration, mean [1] [nM]	Uncorrected serum concentration, minimum to maximum [1]	Uncorrected serum concentration, median [1] [nM]	Serum concentration, range [1]	Ratio metabolite/oxycodone serum concentration, 25th percentile [1]	Ratio metabolite/oxycodone serum concentration, 75th percentile [1]	Ratio metabolite/oxycodone serum concentration, mean [1]	Ratio metabolite/oxycodone serum concentration, median [1]	Ratio metabolite/oxycodone serum concentration, minimum to maximum [1]	AUC after blocking the CYP2D6 metabolic pathways of oxycodone with quinidine (CYP2D6)	Serum concentration, median [1] [nM]	also measured
COc1ccc2c3c1O[C@H]1C(=O)CC[C@@]4(O)[C@@H](C2)NCC[C@]314 [Noroxycodone, noroxycodone]	1.4 to 1.8	174 to 245	103 nM × 100 mg 24 h^−1/dose 24 h^−1	261 nM × 100 mg 24 h^−1/dose 24 h^−1	212 nM × 100 mg 24 h^−1/dose 24 h^−1	161 nM × 100 mg 24 h^−1/dose 24 h^−1	0–3,032 nM × 100 mg 24 h^−1/dose 24 h^−1	44	211	209	0–3,571 nM	101	0 to 4,858 nM	0.7	1.9	1.6	1.1	0.1–24.4	increased		Unstandardised coefficient B, ratio noroxycodone/oxycodone ([2]; factor: BMI): −0.009; Unstandardised coefficient B, ratio noroxycodone/oxycodone [2, 7]: 0.602; Unstandardised coefficient B, ratio noroxycodone/oxycodone [2, 8]: −0.294; Unstandardised coefficient B, ratio noroxycodone/oxycodone ([2]; factor: albumin): 0.006; Unstandardised coefficient B, ratio noroxycodone/oxycodone ([2]; factor: glomerular filtration rate): −0.001; Unstandardised coefficient B, ratio noroxycodone/oxycodone ([2]; factor: oxycodone total daily dose, n = 396, R^2 = 0.19): 0.001; Unstandardised coefficient B, ratio noroxycodone/oxycodone [2, 9]: −0.110; Unstandardised coefficient B, ratio noroxycodone/oxycodone ([2]; factor: systemic steroids (yes = 1)): −0.070; Unstandardised coefficient B, ratio noroxycodone/oxycodone [2, 10]: 0.012; Predicted higher noroxycodone/oxycodone ratio in users of CYP3A4 inducers ([2]; human, in vivo): about 4 times; Predicted lower noroxycodone/oxycodone ratio in users of systemic steroids ([2]; human, in vivo): 15%; Cmax after blocking the CYP3A4 metabolic pathway with ketoconazole (CYP3A4): decreased
O=C1CC[C@@]2(O)[C@H]3Cc4ccc(O)c5c4[C@@]2(CCN3)[C@H]1O5 [Noroxymorphone, noroxymorphone]			18 nM × 100 mg 24 h^−1/dose 24 h^−1	44 nM × 100 mg 24 h^−1/dose 24 h^−1	34 nM × 100 mg 24 h^−1/dose 24 h^−1	29 nM × 100 mg 24 h^−1/dose 24 h^−1	0–360 nM × 100 mg 24 h^−1/dose 24 h^−1	8	39	30	0 to 509 nM	17	0 to 509 nM							17	
COc1ccc2c3c1O[C@H]1C(=O)CC[C@@]4(O)[C@@H](C2)N(C)CC[C@]314 [Oxycodone, oxycodone, reference compound]		139 to 183	90 nM × 100 mg 24 h^−1/dose 24 h^−1	225 nM × 100 mg 24 h^−1/dose 24 h^−1	186 nM × 100 mg 24 h^−1/dose 24 h^−1	144 nM × 100 mg 24 h^−1/dose 24 h^−1	0–1,294 nM × 100 mg 24 h^−1/dose 24 h^−1	43	201	161	0–1,890 nM	97	0 to 1,890 nM						increased		Predicted higher oxycodone serum concentration in men than in women ([2]; calculated from the regression analysis): about 30%; Unstandardised coefficient B, oxycodone serum concentration [2, 7]: −0.786; Unstandardised coefficient B, oxycodone serum concentration [2, 8]: 0.204; Unstandardised coefficient B, oxycodone serum concentration ([2]; factor: oxycodone total daily dose, n = 433, R^2 = 0.35): 0.002; Unstandardised coefficient B, oxycodone serum concentration [2, 9]: 0.113; Unstandardised coefficient B, oxycodone serum concentration [2, 10]: −0.027; Predicted higher oxycodone serum concentration in users of CYP3A4 inhibitors ([2]; versus non-users): 60%; Predicted lower oxycodone serum concentration in users of CYP3A4 inducer drugs ([2]; versus those without CYP3A4 inducer drug): 84%; Serum concentration, users versus non-users of CYP2D6 inhibitors [3]: did not differ; Oral bioavailability [4]: 60–87%; Plasma concentrations in elderly versus younger patients [5]: may have higher
CN1CC[C@]23c4c5ccc(O)c4O[C@H]2C(=O)CC[C@@]3(O)[C@H]1C5 [Oxymorphone, oxymorphone]	0.020 to 0.025	2.3 to 3.0	1.2 nM × 100 mg 24 h^−1/dose 24 h^−1	4.2 nM × 100 mg 24 h^−1/dose 24 h^−1	3.4 nM × 100 mg 24 h^−1/dose 24 h^−1	2.2 nM × 100 mg 24 h^−1/dose 24 h^−1	0–34 nM × 100 mg 24 h^−1/dose 24 h^−1	0.7	3.2	2.6	0 to 25 nM	1.5	0 to 27 nM	0.01	0.03	0.02	0.02	0.00032–0.21	decreased	1.5	Unstandardised coefficient B, ratio oxymorphone/oxycodone [2, 7]: 0.607; Unstandardised coefficient B, ratio oxymorphone/oxycodone ([2]; factor: number of medications (excluding opioids) taken in the last 24 h): −0.024; Unstandardised coefficient B, ratio oxymorphone/oxycodone ([2]; factor: oxycodone total daily dose, n = 438, R^2 = 0.05): −0.0004; Serum concentration, users versus non-users of CYP2D6 inhibitors [3]: did not differ; AUC after blocking the CYP3A4 metabolic pathway with ketoconazole (CYP3A4): increased; Concentrations in patients with impaired hepatic function [5]: lower
CN1CC[C@]23c4c5ccc(O)c4O[C@H]2[C@@H](O)C=C[C@H]3[C@H]1C5 [morphine]																					Additional morphine needed by men compared with women for pain relief [6]: 30–40%
